The data set can be described thus: Human HepG2 cell viability assay in 384 well format. In kind it is toxicity, cell-based. Also on record: dose 125 nL, time 70.5 hour; cytotoxicity at 70.5 h: concentration not given beside the values. To be noted: HepG2 cells, read-out: Inhibition.
Consider `c1cnn(CC2CCN(c3nc(C4CC4)nc4c3CCNCC4)CC2)c1`, for which the cytotoxicity at 70.5 h is -0.96%.

`CNC(=O)[C@@H]1C[C@@H](NC(=O)CCCc2cccs2)CN1C1CCOCC1`: the cytotoxicity at 70.5 h was -1.92%. To `CN(Cc1cnc2ccccc2c1)C(=O)C(c1ccccc1F)N(C)C` (stereo not drawn) belongs -10.3%.

As to `COc1ccc(C(=O)N2C[C@@H](C(=O)O)[C@H](c3ccccc3)C2)c(O)c1`, the cytotoxicity at 70.5 h is -8.78%. On to `CN(C)CC(=O)NC1CC(C)(C)Cc2nc(C(C)(C)C)ncc21` (stereo not drawn), for which the cytotoxicity at 70.5 h came to 46.7%. Regarding `Cc1c[nH]c(CN(C)C(=O)[C@@]23CNC[C@@H]2CN(c2ncccn2)C3)n1`, the cytotoxicity at 70.5 h was -14%.

Turning to `Cc1nccn1CCN(C)c1nc(-c2cccnc2)nc2c1CCNC2`, the cytotoxicity at 70.5 h is -3.49%. To `CCN1CCc2[nH]cnc2C12CCN(c1ncc(C(=O)O)cc1Cl)CC2` belongs 3.78%; to `CN(C)c1nc(NCCc2cnccn2)ncc1F`, -9.9%. Consider `COc1ccc(N2CCN(CC[C@H](O)c3ccccc3)CC2=O)cc1`, for which the cytotoxicity at 70.5 h was -12.7%.

As to `Cc1ccc(C)c2c(C)c(C(=O)NCCCn3ccnn3)[nH]c12`, the cytotoxicity at 70.5 h was determined as 43.6%. Next, `CCCS(=O)(=O)N1CCC2(CCC(=O)N(CCc3ccccc3)C2)CC1`: -10.1%; `CCSCCNC(=O)c1cnc(-c2ccccc2)nc1O`: 7.82%. To `CCCN1CCN(C(=O)c2ccc3ccccc3n2)[C@H]2CS(=O)(=O)C[C@H]21` belongs 13.2%.

Consider `O=C(CSc1ccccc1)Nc1cnn(CC(=O)N2CCCO2)c1`, for which the cytotoxicity at 70.5 h is -2.01%. As for `Cc1nc(CN2C[C@@H](NS(=O)(=O)N(C)C)[C@H](C(C)C)C2)cs1`, the cytotoxicity at 70.5 h is -1.78%. For the compound `Cc1cccc(-c2cc(-c3c(C)nn(CCO)c3C)c(C#N)c(N)n2)c1`, the cytotoxicity at 70.5 h was -11.4%.

For the compound `Cc1ccccc1C(C(=O)N(C)Cc1cnn(C)c1)N(C)C` (stereo not drawn), the cytotoxicity at 70.5 h is -1.08%. As to `Cc1ccc(SCCN(C)C(=O)c2cn(CCN)nn2)cc1`, the cytotoxicity at 70.5 h amounted to 16.5%.

Consider `O=C(Cn1ccc2ccccc21)NCc1cc(N2CCOCC2)ncn1`, for which the cytotoxicity at 70.5 h is -1.81%. As to `CCc1nc(CN(C)C(=O)c2cc(NC(C)=O)ccc2Cl)no1`, the cytotoxicity at 70.5 h was determined as 18.6%.

Take `CN1CC2(CCCN(Cc3nnc(-c4ccccc4)o3)CC2)OC1=O` (stereo not drawn): the cytotoxicity at 70.5 h was -15%. Regarding `CC(=O)N[C@@H]1Cc2ccccc2[C@H]1Nc1ccncn1`, the cytotoxicity at 70.5 h is -5.99%.

As to `CCNc1ncc(C(=O)NCc2csc(C)n2)cn1`, the cytotoxicity at 70.5 h is 1.23%.

On to `Cc1ccc(N2CCCC(c3[nH]ncc3Cc3ccccc3)C2)nn1` (stereo not drawn), for which the cytotoxicity at 70.5 h was determined as 7.65%. Next, `CCc1c(C)nc(N)nc1NCCSCc1[nH]cnc1C`: -2.58%. On to `COc1cc(F)c(CN2CC[C@@](O)(C3CC3)[C@H](C)C2)cc1OC`, for which the cytotoxicity at 70.5 h is -3.1%. To `CCCn1ncc(C(=O)N2CCN([C@H]3CCCC[C@@H]3O)CC2)c1C` belongs -0.657%; to `CC(C)(C)c1ncc2c(n1)CN(C(=O)c1ccc3[nH]cnc3c1)C2`, -3.17%. Consider `COc1ccccc1OCCCc1cccc(C#N)n1`, for which the cytotoxicity at 70.5 h is -1.85%. Regarding `COC[C@]1(O)CCN(c2cc(OC)ncn2)CC1(C)C`, the cytotoxicity at 70.5 h was -11.7%. Turning to `CN(C)CCNC(=O)c1ccc(OC2CCN(C3CCC3)CC2)c(Cl)c1`, the cytotoxicity at 70.5 h was -5.59%. To `O=C(c1ccccc1C(F)(F)F)N1C[C@@H](CN2CCOCC2)[C@@H](CO)C1` belongs -6.68%; to `CCC(=O)N1CCc2[nH]cnc2C12CCN(CC1CCOC1)CC2` (stereo not drawn), -9.55%. With `CS(=O)(=O)N1CCC2(CCCN(CCCc3ccccc3)C2=O)C1` (stereo not drawn), the cytotoxicity at 70.5 h is -6.93%. To `Cc1ccc(CN(C)Cc2cc(C3CC3)[nH]n2)c(O)n1` belongs -5.35%; to `COCC(NC(=O)c1cnc(-c2ccncc2)nc1)c1ccnn1C` (stereo not drawn), -5.01%. To `O=C(NCc1ccc2c(c1)CCCO2)c1cn2c(n1)CNCC2` belongs 5.37%; to `CC(C)Oc1cccc(C(=O)Nc2nncs2)c1`, -11.6%; to `O=c1cc(-c2ccncc2)nc(-c2ccc(CN3CC[C@@H](O)C3)cc2)[nH]1`, -11.3%. `COc1cccc(OCc2cc(C(=O)NC[C@@H]3CCCN3)n[nH]2)c1`: the cytotoxicity at 70.5 h is 0.523%.

For `Cc1ccc(CN2CCN(C3CSCCSC3)CC2CCO)o1` (stereo not drawn), the cytotoxicity at 70.5 h is -6.76%. With `c1cc(N2CCC(c3nnc(Cn4ccnc4)n3C3CC3)CC2)ccn1`, the cytotoxicity at 70.5 h was -6.52%.

For `CCC1=NOC(CNCc2cnc(-c3ccccc3C)s2)C1` (stereo not drawn), the cytotoxicity at 70.5 h is -6.62%. `CC(Cn1ccnc1)NCc1nncn1C1CCCCC1` (stereo not drawn): the cytotoxicity at 70.5 h was -1.11%. Turning to `Cc1ccc(CN2CC3(CCN(C(=O)C4CC4)CC3)CC2C(=O)O)o1` (stereo not drawn), the cytotoxicity at 70.5 h is -2.54%. To `CN(C)c1nc2c(c(=O)[nH]1)CCN(C(=O)C1CCCO1)C2` (stereo not drawn) belongs -8.42%; to `O=C(Nc1ccc(-n2cccn2)cc1)N1C[C@H](O)[C@@H](N2CCOCC2)C1`, -13.4%. As to `CC(=O)Nc1ccc(CN2CCc3[nH]cnc3C2c2ccc(C)o2)cc1` (stereo not drawn), the cytotoxicity at 70.5 h is -6.39%. Take `CCN1CCC2(CC1)c1nc[nH]c1CCN2S(C)(=O)=O`: the cytotoxicity at 70.5 h was -6.08%.

For the compound `COCCN(C)CCN1CC2(CCN(C3CCCCC3)CC2)OC1=O`, the cytotoxicity at 70.5 h was -4.75%.

As for `CNCc1n[nH]c(=O)n1CC1CCCCC1`, the cytotoxicity at 70.5 h is -5.1%. Next, `Cc1nc(CN(C)Cc2cn[nH]c2-c2ccc(F)cc2)c[nH]1`: 5.97%. In the case of `CC(NCc1cn(CCC(N)=O)c2ccccc12)c1nncn1C` (stereo not drawn), the cytotoxicity at 70.5 h was determined as 23.7%. Consider `CCNc1ncc(C(=O)NC2CCOCC2)cn1`, for which the cytotoxicity at 70.5 h was -5.98%. Regarding `Cc1nc(C)c(-c2ccn(CC(=O)Nc3cnn(C)n3)n2)s1`, the cytotoxicity at 70.5 h amounted to 8.07%.

For the compound `CSc1ccccc1C(=O)N1C[C@H]2CC[C@@H]1CN(C(=O)N(C)C)C2`, the cytotoxicity at 70.5 h was -8.08%. Next, `CC(C)[C@]1(O)CN(C(=O)CNC(N)=O)C[C@H]1C`: -0.763%; `CC(=O)NCC(=O)N(CCN1CCOCC1)Cc1ccco1`: 3.23%. As for `Cc1noc(C)c1C(=O)N(Cc1ccsc1)CC1CCCO1` (stereo not drawn), the cytotoxicity at 70.5 h worked out at 3.1%. Next, `Cc1nc2c(c(NCc3cnc4c(c3)CCC4)n1)CNC2`: -6.06%; `CCN1CC2(CCC1=O)CCN(C(=O)C(O)c1cccc(Cl)c1)CC2` (stereo not drawn): -7.18%; `CN1Cc2nnc(C3CCOCC3)n2C(Cc2c[nH]cn2)C1` (stereo not drawn): -1.52%. To `OC1CCN(CCCNc2ncccn2)CC1` belongs 3.78%; to `O=C(O)C1c2nc[nH]c2CCN1Cc1ccc(-c2ccccc2)s1` (stereo not drawn), -4.04%. As for `CN(Cc1ccc2nonc2c1)C(=O)c1ccc(C2CCCO2)s1` (stereo not drawn), the cytotoxicity at 70.5 h is -4.66%. Next, `COCc1nc(CNC2CSCCSC2)no1`: -11.5%; `CCn1ncnc1CN(CCOC)Cc1ccc(C)cc1`: -4.05%.

As for `Cn1nccc1C(=O)N1CCCN(CCCc2ccccc2)CC1`, the cytotoxicity at 70.5 h is -0.514%. With `CCc1ccc(C(=O)N2CCC(O)(CN3CCOCC3)C(C)(C)C2)[nH]1` (stereo not drawn), the cytotoxicity at 70.5 h is -9.84%.

Consider `CNCCNc1nccc(-c2cn(C)nc2C)n1`, for which the cytotoxicity at 70.5 h is -5.66%. Next, `Cc1cccc(CNC(=O)NCC2CCN(Cc3ncc[nH]3)C2)c1` (stereo not drawn): -16.7%; `Cc1nnsc1CN1C[C@H]2CC[C@@H]1CN(Cc1ccccc1)C2`: -1.08%; `CSCc1noc(Cn2ncn3cccc3c2=O)n1`: -3.25%. With `O=S(=O)(Cc1ccccc1CN1CCOCC(O)C1)c1ccccc1` (stereo not drawn), the cytotoxicity at 70.5 h amounted to 14.8%.

For the compound `Cc1ccc(OC2(C(=O)N(C)Cc3ccoc3)CCNCC2)cc1`, the cytotoxicity at 70.5 h is -16.8%. `CCCc1cnc(C)nc1N1CCC2(CCCO2)CC1`: the cytotoxicity at 70.5 h was -1.28%. Consider `CCc1nc(N2CCCC(CCCOC)C2)c2cnn(C)c2n1` (stereo not drawn), for which the cytotoxicity at 70.5 h is -5.41%. On to `COCc1nc(Cn2ncn3cccc3c2=O)no1`, for which the cytotoxicity at 70.5 h was -0.912%. Next, `CCN1CC(C(=O)N2CCN(CCn3cccc3)CC2)CCC1=O` (stereo not drawn): 1.29%; `Fc1cccc(C2(CNC3CCSC3)CCOCC2)c1` (stereo not drawn): 13.3%; `CCc1nc(C)c(C2CC(=O)Nc3c2c(-c2ccccn2)nn3C)[nH]1` (stereo not drawn): 1.83%. Turning to `COc1cccc2c1OCCCN(c1nc(N)nc3c1CCNC3)C2`, the cytotoxicity at 70.5 h came out at 12.6%. To `CCOCC(=O)N1CCC(C2CCN(Cc3ccc(Cl)cc3)C2)CC1` (stereo not drawn) belongs -2.4%; to `COc1nc(C)c(C(=O)N2CCN(c3ncccc3C)CC2)s1`, -4.24%; to `CN(Cc1ccc2c(c1)OCO2)C(=O)c1ccc(C2CCCNC2)cc1` (stereo not drawn), -6.12%. To `NC(=O)CN1CCCC(C(=O)N2CCC(O)(Cc3ccccc3)CC2)C1` (stereo not drawn) belongs -9.61%. To `CCc1ccc2nc(C)cc(C(=O)NC3CCCCNC3=O)c2c1` (stereo not drawn) belongs 1.7%. With `CC(=O)N1CCCC(C(=O)NCCc2csc(-c3ccncc3)n2)C1` (stereo not drawn), the cytotoxicity at 70.5 h is -5.2%. To `O=C(c1scc2c1OCCO2)N1CCC(Cc2cccc(CO)c2)C1` (stereo not drawn) belongs -3.37%; to `Cc1nc[nH]c1CN1CCCC(CNC(=O)c2ccncn2)C1` (stereo not drawn), -7.41%.

With `Cc1nc(C)c(CC(=O)N2C[C@@H]3CC[C@H](C2)N(CC2CC2)C3)s1`, the cytotoxicity at 70.5 h is -3.8%. Next, `CCCS(=O)(=O)NCc1cccnc1Oc1ccc(C)nc1`: -0.632%; `O=C(O)C1(Cc2ccc(F)cc2F)CCCN(Cc2ccccn2)C1` (stereo not drawn): -5.82%.

`O=C1NCCCC[C@@H]1NC(=O)C1(N2CCCCC2)Cc2ccccc2C1`: the cytotoxicity at 70.5 h is -4.27%. Take `O=C(NCc1nnnn1-c1ccccc1)c1ccc(C2CCCO2)s1` (stereo not drawn): the cytotoxicity at 70.5 h is -4.49%. As for `NC(=O)C1CCCN(c2ncnc3c2Cc2ccccc2OC3)C1` (stereo not drawn), the cytotoxicity at 70.5 h is 19%. Take `C[C@@H]1CN(c2ccc(Cl)cn2)CC[C@@]1(O)C1CCOCC1`: the cytotoxicity at 70.5 h is -1.93%.

The values are drawn from ChEMBL document CHEMBL3507680, “University of Dundee, Gates Library screen for HepG2 cell viability”.
